Target: (recombinant) catalytic domain of human Bub1 (amino acids 704-1085) (Homo sapiens (Human), UniProt O43683)
Assay: Bub1 kinase assay (TR-FRET)
Type: biochemical
Settings: ATP 10 μM final, peptide substrate 1 μM final, 60 min at 22° C., read-out: Biological Assay: Bub1 kinase assay median IC50
In short: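 Compounds were serially diluted 1:3.4 from 2 mM DMSO stocks and incubated with the enzyme reaction for 60 min at 22° C. The reaction was stopped with EDTA, and biotinylated peptide phosphorylation was read by TR-FRET using Eu anti-mouse IgG, anti-phosphoserine antibody and streptavidin-XL665. IC50 was fitted by 4-parameter logistic to inhibition normalized to no-inhibitor and no-enzyme controls.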

(recombinant) catalytic domain of human Bub1 (amino acids 704-1085), sequence (O43683 704-1085): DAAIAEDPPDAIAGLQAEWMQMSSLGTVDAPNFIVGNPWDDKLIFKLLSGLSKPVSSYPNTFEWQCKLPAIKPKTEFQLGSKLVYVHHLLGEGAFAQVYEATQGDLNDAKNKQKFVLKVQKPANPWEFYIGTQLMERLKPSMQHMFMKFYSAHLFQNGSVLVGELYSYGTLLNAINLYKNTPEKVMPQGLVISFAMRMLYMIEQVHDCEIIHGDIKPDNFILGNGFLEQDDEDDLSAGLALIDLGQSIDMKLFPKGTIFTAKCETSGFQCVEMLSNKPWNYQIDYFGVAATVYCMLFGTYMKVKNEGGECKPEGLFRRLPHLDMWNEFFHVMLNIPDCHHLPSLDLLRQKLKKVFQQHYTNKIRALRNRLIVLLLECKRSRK

| SMILES | IC50 [nM] |
| --- | --- |
| Nc1cc(-c2[nH]c3c(c2Nc2ccccc2)C(=O)CCC3)ccn1 [Example 139, 2-(2-aminopyridin-4-yl)-3-(phenylamino)-1,5,6,7-tetrahydro-4H-indol-4-one] | 113 |
| CC1(C)CC(=O)c2c([nH]c(-c3ccnc4[nH]ccc34)c2Nc2ccccc2)C1 [Example 27, 6,6-dimethyl-3-(phenylamino)-2-(1H-pyrrolo[2,3-b]pyridin-4-yl)-1,5,6,7-tetrahydro-4H-indol-4-one] | 43.3 |
| O=C1CCCc2[nH]c(-c3ccncc3)c(Nc3ccc(F)cc3)c21 [Example 42, 3-[(4-fluorophenyl)amino]-2-(pyridin-4-yl)-1,5,6,7-tetrahydro-4H-indol-4-one] | 23 |
| O=C1CCCc2[nH]c(-c3ccnc(NCc4ccccc4)c3)c(Nc3ccccc3)c21 [Example 366, 2-[2-(benzylamino)pyridin-4-yl]-3-(phenylamino)-1,5,6,7-tetrahydro-4H-indol-4-one] | 1660 |
| CSc1cc(-c2[nH]c3c(c2Nc2ccccc2)C(=O)CC(C)(C)C3)ccn1 [Example 200, 6,6-dimethyl-2-[2-(methylsulfanyl)pyridin-4-yl]-3-(phenylamino)-1,5,6,7-tetrahydro-4H-indol-4-one] | 610 |
| CC(C)(O)C(=O)Nc1cc(-c2[nH]c3c(c2Nc2ccccc2)C(=O)CCC3)ccn1 [Example 327, 2-hydroxy-2-methyl-N-{4-[4-oxo-3-(phenylamino)-4,5,6,7-tetrahydro-1H-indol-2-yl]pyridin-2-yl}propanamide] | 280 |
| CC1(C)CC(=O)c2c([nH]c(-c3ccncn3)c2Nc2ccccc2)C1 [Example 5, 6,6-dimethyl-3-(phenylamino)-2-(pyrimidin-4-yl)-1,5,6,7-tetrahydro-4H-indol-4-one] | 25.2 |
| Cc1c(Cl)cccc1Nc1c(-c2ccncc2)[nH]c2c1C(=O)CC(C)(C)C2 [Example 91, 3-[(3-chloro-2-methylphenyl)amino]-6,6-dimethyl-2-(pyridin-4-yl)-1,5,6,7-tetrahydro-4H-indol-4-one] | 101 |
| CN1CCCC1C(=O)Nc1cc(-c2[nH]c3c(c2Nc2ccccc2)C(=O)CCC3)ccn1 (stereo not drawn) [Example 309, 1-methyl-N-{4-[4-oxo-3-(phenylamino)-4,5,6,7-tetrahydro-1H-indol-2-yl]pyridin-2-yl}-prolinamide] | 238 |
| CC(C)(F)C(=O)Nc1cc(-c2[nH]c3c(c2Nc2ccccc2)C(=O)CCC3)ccn1 [Example 242, 2-fluoro-2-methyl-N-{4-[4-oxo-3-(phenylamino)-4,5,6,7-tetrahydro-1H-indol-2-yl]pyridin-2-yl}propanamide] | 182 |
| COc1ccccc1Nc1c(-c2ccncc2)[nH]c2c1C(=O)CC(C)(C)C2 [Example 124, 3-[(2-methoxyphenyl)amino]-6,6-dimethyl-2-(pyridin-4-yl)-1,5,6,7-tetrahydro-4H-indol-4-one] | 154 |
| CC(C)C1CC(=O)c2c([nH]c(-c3ccnc(N)c3)c2Nc2cccc(F)c2)C1 (stereo not drawn) [Example 50, 2-(2-aminopyridin-4-yl)-3-[(3-fluorophenyl)amino]-6-(propan-2-yl)-1,5,6,7-tetrahydro-4H-indol-4-one] | 36.3 |
| CC1(C)CC(=O)c2c([nH]c(-c3ccnc(NC(=O)C(C)(C)F)c3)c2Nc2ccccc2)C1 [Example 475, N-{4-[6,6-dimethyl-4-oxo-3-(phenylamino)-4,5,6,7-tetrahydro-1H-indol-2-yl]pyridin-2-yl}-2-fluoro-2-methylpropanamide] | 38.7 |
| CNCCC(=O)Nc1cc(-c2[nH]c3c(c2Nc2ccccc2)C(=O)CCC3)ccn1 [Example 300, N^2-methyl-N-{4-[4-oxo-3-(phenylamino)-4,5,6,7-tetrahydro-1H-indol-2-yl]pyridin-2-yl}-beta-alaninamide] | 475 |
| Nc1cc(-c2[nH]c3c(c2Nc2ccc(F)cc2)C(=O)CCC3)ccn1 [Example 211, 2-(2-aminopyridin-4-yl)-3-[(4-fluorophenyl)amino]-1,5,6,7-tetrahydro-4H-indol-4-one] | 114 |
| CC1(C)CC(=O)c2c([nH]c(-c3ccncc3)c2Nc2ccc(Br)cc2)C1 [Example 72, 3-[(4-bromophenyl)amino]-6,6-dimethyl-2-(pyridin-4-yl)-1,5,6,7-tetrahydro-4H-indol-4-one] | 47.1 |
| O=C1CCCc2[nH]c(-c3ccnc(NCc4cccnc4)c3)c(Nc3ccccc3)c21 [Example 372, 3-(phenylamino)-2-{2-[(pyridin-3-ylmethyl)amino]pyridin-4-yl}-1,5,6,7-tetrahydro-4H-indol-4-one] | 9530 |
| CC1(C)CC(=O)c2c(Nc3ccccc3)c(-c3ccncc3)n(Cc3ccccc3)c2C1 [Example 186, 1-benzyl-6,6-dimethyl-3-(phenylamino)-2-(pyridin-4-yl)-1,5,6,7-tetrahydro-4H-indol-4-one] | 2940 |
| CC(C)C1CC(=O)c2c([nH]c(-c3ccnc(N)c3)c2Nc2ccc(F)c(F)c2)C1 (stereo not drawn) [Example 222, 2-(2-aminopyridin-4-yl)-3-[(3,4-difluorophenyl)amino]-6-(propan-2-yl)-1,5,6,7-tetrahydro-4H-indol-4-one] | 28.5 |
| CC(=O)Nc1cc(-c2[nH]c3c(c2Nc2ccc(F)c(F)c2)C(=O)CC(C(C)C)C3)ccn1 (stereo not drawn) [Example 323, N-{4-[3-[(3,4-difluorophenyl)amino]-4-oxo-6-(propan-2-yl)-4,5,6,7-tetrahydro-1H-indol-2-yl]pyridin-2-yl}acetamide] | 21.6 |
| O=C1CCCc2[nH]c(-c3ccnc(NC(=O)[C@H]4C[C@H]4F)c3)c(Nc3ccccc3)c21 [Example 253, (1R,2R)-2-fluoro-N-{4-[4-oxo-3-(phenylamino)-4,5,6,7-tetrahydro-1H-indol-2-yl]pyridin-2-yl}cyclopropanecarboxamide] | 23.3 |
| CC1(C)CC(=O)c2c([nH]c(-c3ccncc3)c2Nc2ccccc2Br)C1 [Example 71, 3-[(2-bromophenyl)amino]-6,6-dimethyl-2-(pyridin-4-yl)-1,5,6,7-tetrahydro-4H-indol-4-one] | 49.7 |
| O=C1CCCc2[nH]c(-c3ccncc3Br)c(Nc3ccccc3)c21 [Example 196, 2-(3-bromopyridin-4-yl)-3-(phenylamino)-1,5,6,7-tetrahydro-4H-indol-4-one] | 36.5 |
| CC1(C)CC(=O)c2c([nH]c(-c3ccncc3)c2Nc2ccc3nc[nH]c3c2)C1 [Example 73, 3-(1H-benzimidazol-6-ylamino)-6,6-dimethyl-2-(pyridin-4-yl)-1,5,6,7-tetrahydro-4H-indol-4-one] | 19900 |

The next compounds have a lower IC50 than those just listed; values first:

| IC50 [nM] | SMILES |
| --- | --- |
| 8.69 | CC(=O)Nc1cc(-c2[nH]c3c(c2Nc2cccc(F)c2)C(=O)CC(C(C)C)C3)ccn1 (stereo not drawn) [Example 319, N-{4-[3-[(3-fluorophenyl)amino]-4-oxo-6-(propan-2-yl)-4,5,6,7-tetrahydro-1H-indol-2-yl]pyridin-2-yl}acetamide] |
| 8.4 | CCCOc1cnccc1-c1[nH]c2c(c1Nc1ccccc1)C(=O)CC(C)(C)C2 [Example 405, 6,6-dimethyl-3-(phenylamino)-2-(3-propoxypyridin-4-yl)-1,5,6,7-tetrahydro-4H-indol-4-one] |
| 6.14 | Cn1ccc(C(=O)Nc2cc(-c3[nH]c4c(c3Nc3ccccc3)C(=O)CC(C)(C)C4)ccn2)n1 [Example 504, N-{4-[6,6-dimethyl-4-oxo-3-(phenylamino)-4,5,6,7-tetrahydro-1H-indol-2-yl]pyridin-2-yl}-1-methyl-1H-pyrazole-3-carboxamide] |
| 12.2 | Cc1ccc(Nc2c(-c3ccncc3)[nH]c3c2C(=O)CC(C)(C)C3)c(CO)c1 [Example 482, 3-{[2-(hydroxymethyl)-4-methylphenyl]amino}-6,6-dimethyl-2-(pyridin-4-yl)-1,5,6,7-tetrahydro-4H-indol-4-one] |
| 12.9 | O=C1CC(C(F)(F)F)Cc2[nH]c(-c3ccncc3)c(Nc3ccccc3)c21 (single isomer, unassigned) [Example 440, 3-(phenylamino)-2-(pyridin-4-yl)-6-(trifluoromethyl)-1,5,6,7-tetrahydro-4H-indol-4-one] |
| 8.63 | Cn1ccnc1COCC(=O)Nc1cc(-c2[nH]c3c(c2Nc2ccccc2)C(=O)CCC3)ccn1 [Example 493, 2-[(1-methyl-1H-imidazol-2-yl)methoxy]-N-{4-[4-oxo-3-(phenylamino)-4,5,6,7-tetrahydro-1H-indol-2-yl]pyridin-2-yl}acetamide] |
| 8.98 | CC1(C)CC(=O)c2c([nH]c(-c3ccncc3Cl)c2Nc2ccccc2)C1 [Example 2, 2-(3-chloropyridin-4-yl)-6,6-dimethyl-3-(phenylamino)-1,5,6,7-tetrahydro-4H-indol-4-one] |
| 14.4 | CCCn1c2c(c(Nc3ccccc3)c1-c1ccncc1)C(=O)CCC2 [Example 171, 3-(phenylamino)-1-propyl-2-(pyridin-4-yl)-1,5,6,7-tetrahydro-4H-indol-4-one] |
| 9.36 | CCOCC(=O)Nc1cc(-c2[nH]c3c(c2Nc2ccccc2)C(=O)CCC3)ccn1 [Example 334, 2-ethoxy-N-{4-[4-oxo-3-(phenylamino)-4,5,6,7-tetrahydro-1H-indol-2-yl]pyridin-2-yl}acetamide] |
| 5.57 | CC(C)C1CC(=O)c2c([nH]c(-c3ccncc3)c2Nc2ccccc2)C1 (stereo not drawn) [Example 7, 3-(phenylamino)-6-(propan-2-yl)-2-(pyridin-4-yl)-1,5,6,7-tetrahydro-4H-indol-4-one] |
| 13.1 | CC(C)C1CC(=O)c2c([nH]c(-c3ccnc(N)c3)c2Nc2ccccc2)C1 (stereo not drawn) [Example 49, 2-(2-aminopyridin-4-yl)-3-(phenylamino)-6-(propan-2-yl)-1,5,6,7-tetrahydro-4H-indol-4-one] |
| 9.6 | O=C1CC(C(F)(F)F)Cc2[nH]c(-c3ccncc3)c(Nc3cccc(F)c3)c21 (stereo not drawn) [Example 43, 3-[(3-fluorophenyl)amino]-2-(pyridin-4-yl)-6-(trifluoromethyl)-1,5,6,7-tetrahydro-4H-indol-4-one] |

— patent publication US10428044B2, “3-amino-1,5,6,7-tetrahydro-4H-indol-4-ones” (Bayer Pharma Aktiengesellschaft, priority 2014, dated 2019)
